This is an account of results in patent publication US10590113B2, “6-hydroxy-4-oxo-1,4-dihydropyrimidine-5-carboxamides as APJ agonists” (priority 2016, dated 2020).

The experiment addresses T1, human APJ receptor (Homo sapiens, UniProt P35414).
T1 construct: expressed in transfected cells; host or cells: HEK293
T1 sequence (P35414 1-380): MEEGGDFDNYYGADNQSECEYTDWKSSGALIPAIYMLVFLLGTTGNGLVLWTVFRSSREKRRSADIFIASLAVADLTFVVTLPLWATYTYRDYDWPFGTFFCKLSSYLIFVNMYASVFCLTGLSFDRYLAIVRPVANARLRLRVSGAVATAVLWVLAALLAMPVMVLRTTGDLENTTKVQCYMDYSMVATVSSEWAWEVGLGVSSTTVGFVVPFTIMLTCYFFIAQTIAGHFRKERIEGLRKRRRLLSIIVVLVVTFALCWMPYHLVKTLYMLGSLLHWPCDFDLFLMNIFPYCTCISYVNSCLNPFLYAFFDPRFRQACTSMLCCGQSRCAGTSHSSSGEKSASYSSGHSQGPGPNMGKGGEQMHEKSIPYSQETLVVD
As to the kind of experiment: Intracellular cAMP Accumulation Assay (APJ hcAMP, HTRF). The experiment is classed as cell-based. The note with it: human APJ, intracellular cAMP accumulation; read-out: hAPJ cAMP EC50 Potency range. The method in brief: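 Stably transfected HEK293 cells (5,000/well) incubated 30 min at room temperature with serially diluted compound, […] and 2 μM forskolin. cAMP measured by HTRF after 60 min with detection reagents, quantified against a cAMP standard curve; EC50 from variable-slope sigmoidal fit of inhibition of forskolin-stimulated cAMP.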
For orientation: In TR-FRET formats the signal depends on donor and acceptor labels being close together.

Take `CCCCc1nc(=O)c(C(=O)N2CCC(c3ccccc3F)C2)c(O)n1[C@@H](CC)c1ccccc1` (stereo partly drawn) [Example 114, 2-butyl-5-[3-(2-fluorophenyl)pyrrolidine-1-carbonyl]-6-hydroxy-3-[(1S)-1-phenylpropyl]-3,4-dihydropyrimidin-4-one]: the EC50 (as a rule, the midpoint of the concentration-response curve) was 0.01 to 10 nM. For `CCCCc1nc(=O)c(C(=O)N2CC[C@H](c3ccccc3)C2)c(O)n1[C@@H](COC)c1ccccc1` [Example 116, 2-butyl-6-hydroxy-3-[(1R)-2-methoxy-1-phenylethyl]-5-[(3R)-3-phenylpyrrolidine-1-carbonyl]-3,4-dihydropyrimidin-4-one] the value was 0.01 to 10 nM. Regarding `CCCCc1nc(=O)c(C(=O)N2CC[C@H](c3ccccc3)C2)c(O)n1[C@H](C)c1ccccc1` [Example 117, 2-butyl-6-hydroxy-3-[(1R)-1-phenylethyl]-5-[(3R)-3-phenylpyrrolidine-1-carbonyl]-3,4-dihydropyrimidin-4-one], the EC50 was in the range of 0.01 to 10 nM.

Take `CCCCc1nc(=O)c(C(=O)N2CC[C@@H](c3ccccc3)C2)c(O)n1[C@@H](C)c1cccc(OC)c1` [Example 120, 2-butyl-6-hydroxy-3-[(1S)-1-(3-methoxyphenyl)ethyl]-5-[(3S)-3-phenylpyrrolidine-1-carbonyl]-3,4-dihydropyrimidin-4-one]: the concentration for a half-maximal effect (EC50) is 0.01 to 10 nM. For `CCCCc1nc(=O)c(C(=O)N2CC[C@@H](c3ccccc3)C2)c(O)n1[C@@H](CC)c1ccccc1` [Example 121, 2-butyl-6-hydroxy-3-[(1S)-1-phenylpropyl]-5-[(3S)-3-phenylpyrrolidine-1-carbonyl]-3,4-dihydropyrimidin-4-one] the value was 0.01 to 10 nM; for `CCCCc1nc(=O)c(C(=O)N2CC[C@H](c3ccccc3)C2)c(O)n1[C@H](C)c1ccccc1OC` [Example 122, 2-butyl-6-hydroxy-3-[(1R)-1-(2-methoxyphenyl)ethyl]-5-[(3R)-3-phenylpyrrolidine-1-carbonyl]-3,4-dihydropyrimidin-4-one], 0.01 to 10 nM; for `CCCCc1nc(=O)c(C(=O)N2CC[C@H](c3ccccc3)C2)c(O)n1[C@H](CC)c1ccccc1` [Example 124, 2-butyl-6-hydroxy-3-[(1R)-1-phenylpropyl]-5-[(3R)-3-phenylpyrrolidine-1-carbonyl]-3,4-dihydropyrimidin-4-one], 0.01 to 10 nM. The value for `CCCCc1nc(=O)c(C(=O)N2CC[C@@H](c3ccccc3)C2)c(O)n1[C@@H](C)c1ccccc1` [Example 125, 2-butyl-6-hydroxy-3-[(1S)-1-phenylethyl]-5-[(3S)-3-phenylpyrrolidine-1-carbonyl]-3,4-dihydropyrimidin-4-one] was 0.01 to 10 nM. The value for `CCCCc1nc(=O)c(C(=O)N2CC[C@H](c3ccccc3)C2)c(O)n1[C@@H](C)C1CC1` [Example 126, 2-butyl-3-[(1S)-1-cyclopropylethyl]-6-hydroxy-5-[(3R)-3-phenylpyrrolidine-1-carbonyl]-3,4-dihydropyrimidin-4-one] was 0.01 to 10 nM. In the case of `CCCCc1nc(=O)c(C(=O)N2CC[C@@H](c3ccccc3)C2)c(O)n1[C@@H](COC)c1ccccc1` [Example 127, 2-butyl-6-hydroxy-3-[(1R)-2-methoxy-1-phenylethyl]-5-[(3S)-3-phenylpyrrolidine-1-carbonyl]-3,4-dihydropyrimidin-4-one], the EC50 was in the range of 10 to 100 nM. For `CCCCc1nc(=O)c(C(=O)N2CC[C@@H](c3ccccc3)C2)c(O)n1[C@H](CC)c1ccccc1` [Example 128, 2-butyl-6-hydroxy-3-[(1R)-1-phenylpropyl]-5-[(3S)-3-phenylpyrrolidine-1-carbonyl]-3,4-dihydropyrimidin-4-one] the value was 10 to 100 nM. For `CCCCc1nc(=O)c(C(=O)N2CC[C@@H](c3ccccc3)C2)c(O)n1C(c1ccccc1)C(C)C` (stereo partly drawn) [Example 129, 2-butyl-6-hydroxy-3-(2-methyl-1-phenylpropyl)-5-[(3S)-3-phenylpyrrolidine-1-carbonyl]-3,4-dihydropyrimidin-4-one] the value was 10 to 100 nM; for `CCCCc1nc(=O)c(C(=O)N2CC[C@H](c3ccccc3)C2)c(O)n1C(c1ccccc1)C(C)C` (stereo partly drawn) [Example 130, 2-butyl-6-hydroxy-3-(2-methyl-1-phenylpropyl)-5-[(3R)-3-phenylpyrrolidine-1-carbonyl]-3,4-dihydropyrimidin-4-one], 10 to 100 nM. For `CCCCc1nc(=O)c(C(=O)N2CC[C@@H](c3ccccc3)C2)c(O)n1[C@@H](C)C1CC1` [Example 131, 2-butyl-3-[(1S)-1-cyc1opropylethyl]-6-hydroxy-5-[(3S)-3-phenylpyrrolidine-1-carbonyl]-3,4-dihydropyrimidin-4-one] the value was 10 to 100 nM; for `CCCCc1nc(=O)c(C(=O)N2CC[C@@H](c3ccccc3)C2)c(O)n1[C@H](C)c1ccccc1` [Example 132, 2-butyl-6-hydroxy-3-[(1R)-1-phenylethyl]-5-[(3S)-3-phenylpyrrolidine-1-carbonyl]-3,4-dihydropyrimidin-4-one], 10 to 100 nM; for `CCCCc1nc(=O)c(C(=O)N2CC[C@@H](c3ccccc3)C2)c(O)n1C(C)c1ccccc1Cl` (stereo partly drawn) [Example 133, 2-butyl-3-[1-(2-chlorophenyl)ethyl]-6-hydroxy-5-[(3S)-3-phenylpyrrolidine-1-carbonyl]-3,4-dihydropyrimidin-4-one], 10 to 100 nM. For the compound `CCCCc1nc(=O)c(C(=O)N2CC[C@H](c3ccccc3)C2)c(O)n1C(C)c1ccccc1Cl` (stereo partly drawn) [Example 134, 2-butyl-3-[1-(2-chlorophenyl)ethyl]-6-hydroxy-5-[(3R)-3-phenylpyrrolidine-1-carbonyl]-3,4-dihydropyrimidin-4-one], the EC50 was 10 to 100 nM.

For the compound `CCCCc1nc(=O)c(C(=O)N2CC[C@@H](c3ccccc3)C2)c(O)n1[C@H](C)c1ccccc1OC` [Example 135, 2-butyl-6-hydroxy-3-[(1R)-1-(2-methoxyphenyl)ethyl]-5-[(3S)-3-phenylpyrrolidine-1-carbonyl]-3,4-dihydropyrimidin-4-one], the EC50 lay in the range of 10 to 100 nM. As for `CCCCc1nc(=O)c(C(=O)N2CC[C@@H](c3ccccc3)C2)c(O)n1C(C)c1ccccc1` (stereo partly drawn) [Example 136, 2-butyl-6-hydroxy-3-(1-phenylethyl)-5-[(3S)-3-phenylpyrrolidine-1-carbonyl]-3,4-dihydropyrimidin-4-one], the EC50 is 10 to 100 nM. For the compound `CCCCc1nc(=O)c(C(=O)N2CC[C@H](c3ccccc3)C2)c(O)n1[C@@H](CCC)c1ccccc1` [Example 137, 2-butyl-6-hydroxy-3-[(1S)-1-phenylbutyl]-5-[(3R)-3-phenylpyrrolidine-1-carbonyl]-3,4-dihydropyrimidin-4-one], the EC50 fell in the range of 10 to 100 nM. In the case of `CCCCc1nc(=O)c(C(=O)N2CC[C@H](c3ccccc3)C2)c(O)n1[C@@H](C)c1cccc(C#N)c1` [Example 138, 3-[(1S)-1-{2-butyl-4-hydroxy-6-oxo-5-[(3R)-3-phenylpyrrolidine-1-carbonyl]-1,6-dihydropyrimidin-1-yl}ethyl]benzonitrile], the EC50 lay in the range of 10 to 100 nM.

Turning to `CCCCc1nc(=O)c(C(=O)N2CC[C@H](c3ccccc3)C2)c(O)n1[C@@H](C)c1cccc(OC)c1` [Example 139, 2-butyl-6-hydroxy-3-[(1S)-1-(3-methoxyphenyl)ethyl]-5-[(3R)-3-phenylpyrrolidine-1-carbonyl]-3,4-dihydropyrimidin-4-one], the EC50 fell in the range of 10 to 100 nM. For the compound `CCCCc1nc(=O)c(C(=O)N2CC[C@H](c3ccccc3)C2)c(O)n1C(C)c1cccnc1` (stereo partly drawn) [Example 140, 2-butyl-6-hydroxy-5-[(3R)-3-phenylpyrrolidine-1-carbonyl]-3-[1-(pyridin-3-yl)ethyl]-3,4-dihydropyrimidin-4-one], the EC50 was 10 to 100 nM. For the compound `CCCCc1nc(=O)c(C(=O)N2CC[C@H](c3ccccc3)C2)c(O)n1[C@@H](C)c1ccccc1` [Example 141, 2-butyl-6-hydroxy-3-[(1S)-1-phenylethyl]-5-[(3R)-3-phenylpyrrolidine-1-carbonyl]-3,4-dihydropyrimidin-4-one], the EC50 is 10 to 100 nM. `CCCCc1nc(=O)c(C(=O)N2CC[C@H](c3ccccc3)C2)c(O)n1[C@H](C)C1CC1` [Example 142, 2-butyl-3-[(1R)-1-cyc1opropylethyl]-6-hydroxy-5-[(3R)-3-phenylpyrrolidine-1-carbonyl]-3,4-dihydropyrimidin-4-one]: the EC50 fell in the range of 10 to 100 nM. The value for `CCCCc1nc(=O)c(C(=O)N2CC[C@@H](c3ccccc3)C2)c(O)n1[C@@H](C)c1ccc(F)cc1` [Example 143, 2-butyl-3-[(1S)-1-(4-fluorophenyl)ethyl]-6-hydroxy-5-[(3S)-3-phenylpyrrolidine-1-carbonyl]-3,4-dihydropyrimidin-4-one] was 10 to 100 nM; that for `CCCCc1nc(=O)c(C(=O)N2CC[C@@H](c3ccccc3)C2)c(O)n1C(C)c1cccnc1` (stereo partly drawn) [Example 146, 2-butyl-6-hydroxy-5-[(3S)-3-phenylpyrrolidine-1-carbonyl]-3-[1-(pyridin-3-yl)ethyl]-3,4-dihydropyrimidin-4-one] was 10 to 100 nM. For `CCCCc1nc(=O)c(C(=O)N2CC[C@H](c3ccccc3)C2)c(O)n1C(C)c1ccncc1` (stereo partly drawn) [Example 148, 2-butyl-6-hydroxy-5-[(3R)-3-phenylpyrrolidine-1-carbonyl]-3-[1-(pyridin-4-yl)ethyl]3,4-dihydropyrimidin-4-one] the value was 10 to 100 nM.
